Laboratory results reported in patent US20040242650A1, “Extended dosing regimen” (priority 2003, published 2004).
Where two headings read alike, the source gives them in different places.

Assay: Pharmacokinetic profiles of patients on the extended dosing regimen (plasma, LCMS/MS, day 15)
Format: in vivo
Conditions: for AUC / half-life / Cmax / concentration at 15 day / Tmax: human, plasma, po; for concentration at 15 day: read-out: Cmin
Experimental: A total of 43 patients were enrolled in the study. The tumor types were as follows: colorectal (23), sarcoma (5), mesothelioma (3), salivary gland (2), endometrial (2), unknown (2), hepatoma (1), melanoma (1), renal cell (1), lung (1), ovary (1), and granulosa cell (1). Patients were treated once a day (QD) or twice a day (BID) for 21 days with N-[2-[(4-hydroxyphenyl)amino]-3-pyridyl]-4-methoxybenzenesulfonamide followed by a 7-day period where no drug was received. Doses were escalated by 50 mg/day (25 mg BID). Three patients were initially treated at each dose level. […] If additional patients experienced dose-limiting toxicity, on occasion the dose level was expanded to nine patients to further assess tolerability. Response assessment was performed every two cycles.
In evaluating the pharmacokinetic profiles of the patients, plasma samples were collected pre-dose and over 6 hours following dosing on day 15. Plasma concentrations of N-[2-[(4-hydroxyphenyl)amino]-3-pyridyl]-4-methoxybenzenesulfonamide were determined by a validated LCMS/MS assay. Pharmacokinetic parameter estimates were obtained using noncompartmental methods, and included maximum observed concentration (Cmax), time to Cmax (Tmax), minimum observed concentration (Cmin), half-life (t1/2), and area under the plasma concentration-time profile over a dosing interval (AUCτ). To facilitate calculation of day 15 AUCs, pre-dose concentrations at the beginning and end of the dosing interval were assumed to be equal. Results are summarized below (Table 2).

[1] = 25 mg, 25 mg BID oral, day 15, plasma, N=2
[2] = 25 mg, 25 mg QD oral, day 15, plasma, N=4
[3] = 50 mg, 50 mg BID oral, day 15, plasma, N=2
[4] = 50 mg, 50 mg QD oral, day 15, plasma, N=3
[5] = 75 mg, 75 mg BID oral, day 15, plasma, N=3
[6] = 100 mg, 100 mg BID oral, day 15, plasma, N=3
[7] = 100 mg, 100 mg QD oral, day 15, plasma, N=3
[8] = 200 mg, 200 mg QD oral, day 15, plasma, N=2

## COc1ccc(S(=O)(=O)Nc2cccnc2Nc2ccc(O)cc2)cc1 [N-[2-[(4-hydroxyphenyl)amino]-3-pyridyl]-4-methoxybenzenesulfonamide]
150 mg QD oral, day 15, plasma, N=3
  Cmin: 700 ± 400 ng/mL
QD or BID dosing
  accumulation of plasma concentrations: accumulated minimally
Across doses studied
  variation of Tmax and t1/2 with dose: did not appear to vary with dose
Across the range of doses studied
  dose proportionality of plasma concentrations: dose-proportional (linear) pharmacokinetics
For a given daily dose
  Cmin concentrations, BID vs QD regimens: tended to be greater for BID regimens compared to QD regimens
25 mg, 25 mg BID oral, day 15, N=2, AUC0-12
  AUC: 9100 ± 400 ng·h/mL
25 mg, 25 mg BID oral, day 15, N=2, harmonic mean and pseudo standard deviation, read-out: t1/2 (converted)
  half-life: 3.8 ± 1.7 h
[1]
  Cmax: 2000 ± 600 ng/mL
  concentration at 15 day: 300 ng/mL
25 mg, 25 mg BID oral, day 15, plasma, N=2, read-out: Tmax
  Tmax: 2.3 ± 2.5 h
25 mg, 25 mg QD oral, day 15, N=4, AUC0-24
  AUC: 9000 ± 2900 ng·h/mL
25 mg, 25 mg QD oral, day 15, N=4, harmonic mean and pseudo standard deviation, read-out: t1/2 (converted)
  half-life: 6.3 ± 0.2 h
[2]
  Cmax: 1700 ± 300 ng/mL
  concentration at 15 day: 100 ng/mL
25 mg, 25 mg QD oral, day 15, plasma, N=4, read-out: Tmax
  Tmax: 1.3 ± 0.5 h
50 mg, 50 mg BID oral, day 15, N=2, AUC0-12
  AUC: 16400 ± 3200 ng·h/mL
50 mg, 50 mg BID oral, day 15, N=2, harmonic mean and pseudo standard deviation, read-out: t1/2 (converted)
  half-life: 4 ± 0.6 h
[3]
  Cmax: 5000 ± 900 ng/mL
  concentration at 15 day: 400 ± 200 ng/mL
50 mg, 50 mg BID oral, day 15, plasma, N=2, read-out: Tmax
  Tmax: 0.5 h
50 mg, 50 mg QD oral, day 15, N=3, AUC0-24
  AUC: 20400 ± 5000 ng·h/mL
50 mg, 50 mg QD oral, day 15, N=3, harmonic mean and pseudo standard deviation, read-out: t1/2 (converted)
  half-life: 4.6 ± 2.4 h
[4]
  Cmax: 3500 ± 200 ng/mL
  concentration at 15 day: 100 ± 100 ng/mL
50 mg, 50 mg QD oral, day 15, plasma, N=3, read-out: Tmax
  Tmax: 1.7 ± 0.6 h
75 mg, 75 mg BID oral, day 15, N=3, AUC0-12
  AUC: 17000 ± 3600 ng·h/mL
75 mg, 75 mg BID oral, day 15, N=3, harmonic mean and pseudo standard deviation, read-out: t1/2 (converted)
  half-life: 5.3 ± 0.9 h
[5]
  Cmax: 3700 ± 1200 ng/mL
  concentration at 15 day: 600 ng/mL
75 mg, 75 mg BID oral, day 15, plasma, N=3, read-out: Tmax
  Tmax: 1.5 ± 0.9 h
100 mg, 100 mg BID oral, day 15, N=3, AUC0-12
  AUC: 24100 ± 10000 ng·h/mL
100 mg, 100 mg BID oral, day 15, N=3, harmonic mean and pseudo standard deviation, read-out: t1/2 (converted)
  half-life: 6.1 ± 2.3 h
[6]
  Cmax: 3500 ± 1300 ng/mL
  concentration at 15 day: 900 ± 400 ng/mL
100 mg, 100 mg BID oral, day 15, plasma, N=3, read-out: Tmax
  Tmax: 2.3 ± 1.5 h
100 mg, 100 mg QD oral, day 15, N=3, AUC0-24
  AUC: 39500 ± 7900 ng·h/mL
100 mg, 100 mg QD oral, day 15, N=3, harmonic mean and pseudo standard deviation, read-out: t1/2 (converted)
  half-life: 5.8 ± 1.3 h
[7]
  Cmax: 8400 ± 900 ng/mL
  concentration at 15 day: 200 ± 100 ng/mL
100 mg, 100 mg QD oral, day 15, plasma, N=3, read-out: Tmax
  Tmax: 1.7 ± 0.6 h
150 mg, 150 mg QD oral, day 15, N=3, AUC0-24
  AUC: 55100 ± 12200 ng·h/mL
150 mg, 150 mg QD oral, day 15, N=3, harmonic mean and pseudo standard deviation, read-out: t1/2 (converted)
  half-life: 8.5 ± 1.5 h
150 mg, 150 mg QD oral, day 15, plasma, N=3
  Cmax: 8200 ± 2300 ng/mL
150 mg, 150 mg QD oral, day 15, plasma, N=3, read-out: Tmax
  Tmax: 1.2 ± 0.8 h
200 mg, 200 mg QD oral, day 15, N=2, AUC0-24
  AUC: 60200 ± 34200 ng·h/mL
200 mg, 200 mg QD oral, day 15, N=2, harmonic mean and pseudo standard deviation, read-out: t1/2 (converted)
  half-life: 7 ± 1 h
[8]
  Cmax: 9100 ± 5900 ng/mL
  concentration at 15 day: 500 ± 300 ng/mL
200 mg, 200 mg QD oral, day 15, plasma, N=2, read-out: Tmax
  Tmax: 2 h
Oral dosing, all regimens, read-out: overall mean Tmax
  Tmax: 1.5 h
Oral dosing, all regimens, read-out: overall mean t1/2 (converted)
  half-life: 6 h
Oral dosing, patients
  absorption following oral dosing: rapidly absorbed
